Laboratory results reported in US12441726B2, “Compounds and uses thereof” (Foghorn Therapeutics Inc., priority 2020, dated 2025).

Experiments:
BRM = BRM (Homo sapiens, UniProt P51531); experiment: ATPase catalytic activity assay (ADP-Glo), BRM; details: 30 nM BRM, 400 μM ATP; for IC50: BRM ATPase: IC50 (uM)
BRG-1 = BRG-1 (Homo sapiens, UniProt P51532); experiment: ATPase catalytic activity assay (ADP-Glo), BRG-1; details: for Emax: 1 h, read-out: BRG1 Max % Inhibition, ADP-Glo, 30 nM BRG-1, 400 μM ATP
BRG-1, sequence (P51532 whole entry): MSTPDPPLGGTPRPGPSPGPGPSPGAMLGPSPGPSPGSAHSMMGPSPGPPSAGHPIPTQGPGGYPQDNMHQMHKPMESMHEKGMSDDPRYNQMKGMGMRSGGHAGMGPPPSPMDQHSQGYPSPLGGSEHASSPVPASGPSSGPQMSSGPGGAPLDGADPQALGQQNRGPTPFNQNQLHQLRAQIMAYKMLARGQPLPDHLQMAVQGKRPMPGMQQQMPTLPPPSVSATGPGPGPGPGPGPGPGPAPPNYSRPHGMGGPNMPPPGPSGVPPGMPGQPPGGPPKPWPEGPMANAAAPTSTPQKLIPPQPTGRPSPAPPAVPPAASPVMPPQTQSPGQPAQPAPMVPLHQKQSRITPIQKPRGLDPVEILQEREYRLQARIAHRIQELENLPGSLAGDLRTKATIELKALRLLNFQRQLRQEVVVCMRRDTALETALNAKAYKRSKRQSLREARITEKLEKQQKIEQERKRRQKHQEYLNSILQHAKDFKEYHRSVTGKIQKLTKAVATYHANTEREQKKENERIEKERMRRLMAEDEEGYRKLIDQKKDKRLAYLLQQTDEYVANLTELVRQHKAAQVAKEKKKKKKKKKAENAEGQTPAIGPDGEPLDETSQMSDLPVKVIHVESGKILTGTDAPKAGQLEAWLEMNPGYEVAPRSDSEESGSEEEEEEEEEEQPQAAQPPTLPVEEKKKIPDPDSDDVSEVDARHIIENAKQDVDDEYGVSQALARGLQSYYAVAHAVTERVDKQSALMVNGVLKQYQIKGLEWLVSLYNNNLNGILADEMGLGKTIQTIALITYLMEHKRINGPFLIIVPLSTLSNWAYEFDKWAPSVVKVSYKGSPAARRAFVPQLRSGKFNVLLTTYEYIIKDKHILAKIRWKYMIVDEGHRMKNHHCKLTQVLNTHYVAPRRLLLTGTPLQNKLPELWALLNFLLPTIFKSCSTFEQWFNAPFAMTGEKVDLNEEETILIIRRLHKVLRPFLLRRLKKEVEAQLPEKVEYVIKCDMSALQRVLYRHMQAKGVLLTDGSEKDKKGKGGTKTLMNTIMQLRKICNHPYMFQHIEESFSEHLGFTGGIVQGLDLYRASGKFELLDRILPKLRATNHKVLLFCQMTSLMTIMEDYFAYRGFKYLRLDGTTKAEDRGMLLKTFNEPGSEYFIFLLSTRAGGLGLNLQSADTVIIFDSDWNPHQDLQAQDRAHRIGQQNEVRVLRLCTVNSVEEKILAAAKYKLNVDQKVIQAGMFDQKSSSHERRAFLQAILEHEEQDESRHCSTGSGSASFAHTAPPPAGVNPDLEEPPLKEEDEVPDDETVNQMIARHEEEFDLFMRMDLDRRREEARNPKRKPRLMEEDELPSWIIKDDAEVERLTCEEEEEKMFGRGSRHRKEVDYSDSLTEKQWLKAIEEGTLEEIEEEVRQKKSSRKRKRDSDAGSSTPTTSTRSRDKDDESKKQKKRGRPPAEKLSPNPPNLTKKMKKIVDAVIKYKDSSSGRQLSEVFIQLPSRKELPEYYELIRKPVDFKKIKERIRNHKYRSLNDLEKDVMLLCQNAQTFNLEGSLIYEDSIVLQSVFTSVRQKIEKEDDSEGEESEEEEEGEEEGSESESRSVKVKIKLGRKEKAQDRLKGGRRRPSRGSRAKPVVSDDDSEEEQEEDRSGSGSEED

BRM, sequence (P51531 whole entry): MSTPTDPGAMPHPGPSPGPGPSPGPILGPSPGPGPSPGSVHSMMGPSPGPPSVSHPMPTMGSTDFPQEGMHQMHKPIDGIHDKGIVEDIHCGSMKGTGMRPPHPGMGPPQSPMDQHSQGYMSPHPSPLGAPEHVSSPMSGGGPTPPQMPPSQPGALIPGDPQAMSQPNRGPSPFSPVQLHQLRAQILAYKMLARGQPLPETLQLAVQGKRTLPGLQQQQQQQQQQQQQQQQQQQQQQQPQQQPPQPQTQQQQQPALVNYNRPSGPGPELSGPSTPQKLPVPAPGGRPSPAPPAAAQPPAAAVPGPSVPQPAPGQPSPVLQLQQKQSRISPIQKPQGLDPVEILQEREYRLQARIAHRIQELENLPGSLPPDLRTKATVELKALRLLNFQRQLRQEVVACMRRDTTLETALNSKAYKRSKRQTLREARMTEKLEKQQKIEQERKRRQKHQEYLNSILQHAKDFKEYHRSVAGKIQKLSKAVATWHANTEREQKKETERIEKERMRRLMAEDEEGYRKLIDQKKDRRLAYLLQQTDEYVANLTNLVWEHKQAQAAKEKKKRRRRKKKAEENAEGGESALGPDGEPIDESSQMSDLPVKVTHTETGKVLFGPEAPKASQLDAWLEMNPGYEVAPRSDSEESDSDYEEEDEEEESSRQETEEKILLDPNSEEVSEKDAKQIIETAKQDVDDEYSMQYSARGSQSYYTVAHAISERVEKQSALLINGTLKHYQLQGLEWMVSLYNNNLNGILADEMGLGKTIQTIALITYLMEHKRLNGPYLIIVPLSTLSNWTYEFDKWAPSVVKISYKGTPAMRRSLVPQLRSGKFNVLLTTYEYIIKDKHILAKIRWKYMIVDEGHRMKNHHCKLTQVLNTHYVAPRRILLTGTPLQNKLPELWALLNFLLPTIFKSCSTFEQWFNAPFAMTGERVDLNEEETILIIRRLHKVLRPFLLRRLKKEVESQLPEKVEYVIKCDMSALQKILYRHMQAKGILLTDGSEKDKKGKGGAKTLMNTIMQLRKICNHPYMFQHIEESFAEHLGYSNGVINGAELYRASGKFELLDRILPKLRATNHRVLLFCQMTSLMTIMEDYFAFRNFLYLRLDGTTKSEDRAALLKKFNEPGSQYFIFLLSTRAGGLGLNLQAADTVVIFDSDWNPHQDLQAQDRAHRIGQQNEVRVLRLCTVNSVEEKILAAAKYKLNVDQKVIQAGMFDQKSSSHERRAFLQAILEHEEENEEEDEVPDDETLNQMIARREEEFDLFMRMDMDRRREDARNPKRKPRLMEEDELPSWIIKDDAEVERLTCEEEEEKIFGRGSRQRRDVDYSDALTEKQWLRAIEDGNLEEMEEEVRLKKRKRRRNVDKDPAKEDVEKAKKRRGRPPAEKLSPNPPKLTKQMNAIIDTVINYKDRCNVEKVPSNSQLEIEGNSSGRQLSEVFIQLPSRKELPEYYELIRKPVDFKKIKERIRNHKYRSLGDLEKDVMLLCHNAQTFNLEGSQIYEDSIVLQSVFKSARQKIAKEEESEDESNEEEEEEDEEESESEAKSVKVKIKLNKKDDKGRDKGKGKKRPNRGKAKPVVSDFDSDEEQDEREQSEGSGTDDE

Row | SMILES | BRM Max % Inhibition (BRM) | IC50 (BRM) | IC50 (BRG-1) | Emax (BRG-1)
1 | C[C@@]1(F)COCc2ccc(C(=O)NCc3cc4nc(-c5cccc(C6(O)CCOC6)n5)ccc4cn3)cc21 (stereo partly shown) [Compound 249] | 97% | 0.1 to 0.5 µM | 500 to 1000 nM | 71%
2 | COc1ccccc1N1CCc2cnc(CNC(=O)c3ccc4c(c3)[C@](C)(C#N)COC4)cc2C1 [Compound 250] | 87% | 0.1 to 0.5 µM | > 1000 nM | 25%
3 | COc1nn(C)cc1-c1ccc2cnc(CNC(=O)c3ccc4c(c3)[C@](C)(F)COC4)cc2c1 [Compound 251] | 100% | < 0.1 µM | 100 to 500 nM | 91%
4 | C[C@]1(F)CCCc2ncc(C(=O)NCc3cc4nc(-c5cncc(C6CC6)n5)ccc4cn3)cc21 [Compound 252] | 87% | 0.1 to 0.5 µM | > 1000 nM | 33%
5 | C[C@]1(C#N)CCOc2ncc(C(=O)NCc3cc4nc(-c5cncc(C6CC6)n5)ccc4cn3)cc21 [Compound 253] | 92% | 0.1 to 0.5 µM | 500 to 1000 nM | 57%
6 | C[C@@]1(F)COCc2ccc(C(=O)NCc3cc4nc(-c5cccc(C(F)F)n5)ccc4nn3)cc21 [Compound 254] | 99% | < 0.1 µM | 500 to 1000 nM | 77%
7 | C[C@@]1(F)COCc2ccc(C(=O)NCc3cc4nc(-c5cncc(C6CC6)n5)ccc4nn3)cc21 [Compound 255] | 100% | < 0.1 µM | 100 to 500 nM | 90%
8 | COc1ccccc1-c1cnc2cnc(CNC(=O)c3ccc4c(c3)[C@](C)(F)COC4)cc2n1 [Compound 256] | 98% | < 0.1 µM | 500 to 1000 nM | 76%
9 | C[C@@]1(F)COCc2ccc(C(=O)NCc3cc4cc(-c5ccnn(C6CC6)c5=O)ccc4cn3)cc21 [Compound 257] | 92% | 0.1 to 0.5 µM | 500 to 1000 nM | 65%
10 | C[C@@]1(C#N)COCc2ccc(C(=O)NCc3cc4c(cn3)CCN(c3ccnc(N5CCC5)c3F)C4)cc21 [Compound 258] | 96% | 0.1 to 0.5 µM | 100 to 500 nM | 75%
11 | C[C@@]1(F)COCc2ccc(C(=O)NCc3cc4nc(-c5ccnc(N6CCOCC6)n5)ccc4cn3)cc21 [Compound 259] | 99% | < 0.1 µM | 100 to 500 nM | 88%
12 | CNC(=O)c1ccc(-c2ccc3cnc(CNC(=O)c4ccc5c(c4)[C@](C)(F)COC5)cc3n2)cn1 [Compound 260] | 83% | 0.1 to 0.5 µM | > 1000 nM | 42%
13 | COc1nn(C)cc1-c1cnc2cnc(CNC(=O)c3ccc4c(c3)[C@](C)(C#N)COC4)cc2c1 [Compound 261] | 94% | 0.1 to 0.5 µM | 500 to 1000 nM | 61%
14 | C[C@@]1(C#N)COCc2ccc(C(=O)NCc3cc4cc(-c5cccc(C6(O)CC6)n5)ccc4cn3)cc21 [Compound 262] | 102% | < 0.1 µM | < 100 nM | 99%
15 | Cc1cc(-c2ccc3cnc(CNC(=O)c4ccc5c(c4)[C@](C)(C#N)COC5)cc3n2)n[nH]1 [Compound 264] | 98% | 0.1 to 0.5 µM | 500 to 1000 nM | 72%
16 | CO[C@H]1CCN(c2cncc(-c3ccc4cnc(CNC(=O)c5ccc6c(c5)[C@](C)(F)COC6)cc4c3)n2)C1 [Compound 265] | 104% | < 0.1 µM | < 100 nM | 99%
17 | CO[C@@H]1CCN(c2cncc(-c3ccc4cnc(CNC(=O)c5ccc6c(c5)[C@](C)(F)COC6)cc4c3)n2)C1 [Compound 266] | 103% | < 0.1 µM | 100 to 500 nM | 96%
18 | CN1CCN(c2nccc(-c3ccc4cnc(CNC(=O)c5ccc6c(c5)[C@](C)(F)COC6)cc4n3)n2)CC1=O [Compound 267] | 103% | < 0.1 µM | 100 to 500 nM | 88%
19 | C[C@@]1(F)COCc2ccc(C(=O)NCc3cc4nc(-c5ccnn(C6CC6)c5=O)ccc4cn3)cc21 [Compound 268] | 97% | 0.1 to 0.5 µM | 500 to 1000 nM | 67%
20 | C[C@@]1(F)COCc2c(F)cc(C(=O)NCc3cc4cc(-c5cncc(N6CCC6)n5)ccc4cn3)cc21 [Compound 269] | 104% | < 0.1 µM | 100 to 500 nM | 97%
21 | C[C@@]1(C#N)COCc2c(F)cc(C(=O)NCc3cc4cc(-c5cncc(N6CCC6)n5)ccc4cn3)cc21 [Compound 270] | 104% | < 0.1 µM | < 100 nM | 98%
22 | C[C@@]1(F)COCc2ccc(C(=O)NCc3cc4nc(-c5cccc(C6(O)CC6)n5)ccc4cn3)cc21 [Compound 271] | 104% | < 0.1 µM | 100 to 500 nM | 95%

Row | SMILES | BRM Max % Inhibition (BRM) | IC50 (BRM) | IC50 (BRG-1) | Emax (BRG-1)
23 | C[C@@]1(C#N)COCc2ccc(C(=O)NCc3cc4cc(-c5ccnc(N6CCC6)c5F)ccc4cn3)cc21 [Compound 272] | 104% | < 0.1 µM | 100 to 500 nM | 95%
24 | C[C@@]1(F)COCc2ccc(C(=O)NCc3cc4nc(-c5cccc(N=S(C)(C)=O)n5)ccc4cn3)cc21 [Compound 273] | 98% | 0.1 to 0.5 µM | 500 to 1000 nM | 64%
25 | COc1nn(C)cc1-c1nc2cc(CNC(=O)c3ccc4c(c3)[C@](C)(C#N)COC4)ncc2s1 [Compound 274] | 93% | 0.1 to 0.5 µM | 500 to 1000 nM | 45%
26 | COc1nn(C)cc1-c1ccc2nnc(CNC(=O)c3ccc4c(c3)[C@](C)(F)COC4)cc2n1 [Compound 275] | 96% | < 0.1 µM | 500 to 1000 nM | 77%
27 | C[C@@]1(F)COCc2ccc(C(=O)NCc3cc4nc(-c5cncc(N6CCC6)n5)ccc4nn3)cc21 [Compound 276] | 98% | < 0.1 µM | 100 to 500 nM | 95%
28 | C[C@@]1(F)COCc2ccc(C(=O)NCc3cc4nc(-c5ccccc5)ccc4nn3)cc21 [Compound 277] | 96% | 0.1 to 0.5 µM | 500 to 1000 nM | 69%
29 | COCCOCCC(=O)N1CCN(c2cccc(-c3ccc4cnc(CNC(=O)c5ccc6c(c5)[C@](C)(C#N)COC6)cc4n3)n2)CC1 [Compound 278] | 101% | < 0.1 µM | 100 to 500 nM | 96%
30 | C[C@@]1(F)COCc2ccc(C(=O)NCc3cc4nc(N5CCN(C6CC6)S5(=O)=O)ccc4cn3)cc21 [Compound 279] | 83% | 0.1 to 0.5 µM | 500 to 1000 nM | 67%
31 | C[C@@]1(C#N)COCc2ccc(C(=O)NCc3cc4cc(-c5ccnc(C6CC6)c5F)cnc4cn3)cc21 [Compound 280] | 96% | 0.1 to 0.5 µM | 100 to 500 nM | 82%
32 | CN(C)c1cccn(-c2ccc3cnc(CNC(=O)c4ccc5c(c4)[C@](C)(C#N)COC5)cc3n2)c1=O [Compound 281] | 92% | 0.1 to 0.5 µM | > 1000 nM | 48%
33 | C[C@@]1(C#N)COCc2ccc(C(=O)NCc3cc4nc(-n5cccc(C6CC6)c5=O)ccc4cn3)cc21 [Compound 282] | 87% | 0.1 to 0.5 µM | > 1000 nM | 45%
34 | C[C@@]1(C#N)COCc2ccc(C(=O)NCc3cc4nc(-n5cccc(N6CCC6)c5=O)ccc4cn3)cc21 [Compound 283] | 96% | 0.1 to 0.5 µM | 500 to 1000 nM | 63%
35 | C[C@@]1(C#N)COCc2ccc(C(=O)NCc3cc4nc(-c5ccnc(N6CC7CC(C6)O7)n5)ccc4cn3)cc21 [Compound 284] | 99% | < 0.1 µM | 100 to 500 nM | 93%
36 | C[C@@]1(C#N)COCc2ccc(C(=O)NCc3cc4nc(-c5ccnc(N6CC7CC6C7)n5)ccc4cn3)cc21 [Compound 285] | 98% | < 0.1 µM | 100 to 500 nM | 92%
37 | C[C@@]1(C#N)COCc2ccc(C(=O)NCc3cc4c(cn3)CCN(c3ccccn3)C4)cc21 [Compound 286] | 85% | 0.1 to 0.5 µM | > 1000 nM | 43%
38 | CN1CCC(C(=O)N2CCN(c3cccc(-c4ccc5cnc(CNC(=O)c6ccc7c(c6)[C@](C)(C#N)COC7)cc5n4)n3)CC2)CC1 [Compound 287] | 99% | < 0.1 µM | 500 to 1000 nM | 99%
39 | COCCC(=O)N1CCN(c2cccc(-c3ccc4cnc(CNC(=O)c5ccc6c(c5)[C@](C)(C#N)COC6)cc4n3)n2)CC1 [Compound 288] | 101% | < 0.1 µM | 100 to 500 nM | 98%
40 | Cn1cc(-c2nc3cc(CNC(=O)c4ccc5c(c4)[C@](C)(C#N)COC5)ncc3s2)cn1 [Compound 289] | 90% | 0.1 to 0.5 µM | > 1000 nM | 41%
41 | C[C@@]1(F)COCc2ncc(C(=O)NCc3cc4nc(-c5ccccc5)sc4cn3)cc21 [Compound 290] | 94% | 0.1 to 0.5 µM | 500 to 1000 nM | 53%
42 | C[C@@]1(C#N)COCc2ccc(C(=O)NCc3cc4nc(-c5cncc(N6CC[C@@H](F)C6)n5)ccc4cn3)cc21 [Compound 291] | 100% | < 0.1 µM | < 100 nM | 97%
43 | C[C@@]1(F)COCc2ccc(C(=O)NCc3cc4nc(-c5ccnc(N6CCN(C7COC7)CC6)n5)ccc4cn3)cc21 [Compound 292] | 99% | < 0.1 µM | 100 to 500 nM | 94%
